# Reference: ChEMBL document CHEMBL3871296, “Phytochemical and cytotoxic studies on the roots of Euphorbia fischeriana” (Bioorg Med Chem Lett, 2017)
# Key:
# [1] = Cytotoxicity against human A549 cells assessed as cell growth inhibition by MTT assay; assay type: functional, cell-based
# [2] = Cytotoxicity against human Hep3B cells assessed as cell growth inhibition by MTT assay; assay type: functional, cell-based, Hep 3B2
Structure (SMILES),IC50 [1] [µM],IC50 [2] [µM]
CC1(C)OC[C@@]2(C[C@@]34CC[C@H]5C(C)(C)C(=O)CC[C@]5(C)[C@H]3CC[C@H]2C4)O1,> 100,8.15
CC1(C)[C@H](O)CC[C@]2(C)[C@@H]1CC[C@@]13CC[C@@H](C[C@@H]12)[C@](O)(CO)C3,> 100,> 100
CC1(C)CC[C@]2(C)CC[C@]3(C)C(=CC=C4[C@@]5(C)C[C@@H](O)[C@H](O)C(C)(C)[C@@H]5CC[C@]43C)[C@@H]2C1,11.9,12.5
CCCCCCCCCCCCCCCC(=O)O[C@@]12C[C@@H](C)[C@@]3(O)[C@@H](C=C(C=O)C[C@]4(O)C(=O)C(C)=C[C@@H]34)[C@@H]1C2(C)C,9.38,12
OCC(O)C(O)C(O)c1cncc(-c2ccco2)n1 (stereo not drawn),> 100,> 100
C=C1C[C@@]23CC[C@@H]4C(C)(C)[C@H](O)CC[C@@]4(C)[C@H]2C[C@@H]1CC3=O,> 100,> 100
CC1(C)C(=O)CC[C@]2(C)[C@@H]1CC[C@]13C[C@H](CO)[C@@H](CC[C@H]12)C3,> 100,> 100
O=c1[nH]cc(F)c(=O)[nH]1 [FLUOROURACIL],16.6,9.36
C=C(C)[C@@H]1CC[C@]2(C)CC[C@]3(C)[C@H](CC[C@@H]4[C@@]5(C)CC[C@H](OC(C)=O)C(C)(C)[C@@H]5CC[C@]43C)[C@@H]12 [LUPENYL ACETATE],29.8,18.7
